For 18 compounds, IC50 results are on record in patent publication US20260015357A1, “MODULATORS OF NLRP3 INFLAMMASOME AND RELATED PRODUCTS AND METHODS” (Neumora Therapeutics, Inc., priority 2022, published 2026).

By IC50 is commonly meant the concentration that inhibits the measured activity by half.

The structures appear in SMILES notation. Some results are limits rather than exact numbers.

Test [1] concerns IL-6. Nature of the test: IL-6 in supernatants of LPS-primed, nigericin-treated THP1 macrophages, Hu IL-6 AlphaLISA. It is filed as cell-based. Conditions: Homo sapiens, THP-1, PMA-differentiated, 1 hr compound, Nigericin 6.7 uM 3 hrs, IL-6 in supernatant.
Test [2] has as its target T1, NLRP3 inflammasome (Homo sapiens, UniProt Q96P20).
T1 construct: host or cells: THP1 human acute monocytic leukemia cells, PMA-differentiated, LPS-primed
Nature of the test: NLRP3 inflammasome activation in LPS-primed, nigericin-activated THP1 macrophages, IL-1β AlphaLISA. It is filed as cell-based. Particulars: PMA-differentiated, 1 hr compound, Nigericin 6.7 uM 3 hrs, IL-1β in supernatant.

T1 sequence (Q96P20 whole entry): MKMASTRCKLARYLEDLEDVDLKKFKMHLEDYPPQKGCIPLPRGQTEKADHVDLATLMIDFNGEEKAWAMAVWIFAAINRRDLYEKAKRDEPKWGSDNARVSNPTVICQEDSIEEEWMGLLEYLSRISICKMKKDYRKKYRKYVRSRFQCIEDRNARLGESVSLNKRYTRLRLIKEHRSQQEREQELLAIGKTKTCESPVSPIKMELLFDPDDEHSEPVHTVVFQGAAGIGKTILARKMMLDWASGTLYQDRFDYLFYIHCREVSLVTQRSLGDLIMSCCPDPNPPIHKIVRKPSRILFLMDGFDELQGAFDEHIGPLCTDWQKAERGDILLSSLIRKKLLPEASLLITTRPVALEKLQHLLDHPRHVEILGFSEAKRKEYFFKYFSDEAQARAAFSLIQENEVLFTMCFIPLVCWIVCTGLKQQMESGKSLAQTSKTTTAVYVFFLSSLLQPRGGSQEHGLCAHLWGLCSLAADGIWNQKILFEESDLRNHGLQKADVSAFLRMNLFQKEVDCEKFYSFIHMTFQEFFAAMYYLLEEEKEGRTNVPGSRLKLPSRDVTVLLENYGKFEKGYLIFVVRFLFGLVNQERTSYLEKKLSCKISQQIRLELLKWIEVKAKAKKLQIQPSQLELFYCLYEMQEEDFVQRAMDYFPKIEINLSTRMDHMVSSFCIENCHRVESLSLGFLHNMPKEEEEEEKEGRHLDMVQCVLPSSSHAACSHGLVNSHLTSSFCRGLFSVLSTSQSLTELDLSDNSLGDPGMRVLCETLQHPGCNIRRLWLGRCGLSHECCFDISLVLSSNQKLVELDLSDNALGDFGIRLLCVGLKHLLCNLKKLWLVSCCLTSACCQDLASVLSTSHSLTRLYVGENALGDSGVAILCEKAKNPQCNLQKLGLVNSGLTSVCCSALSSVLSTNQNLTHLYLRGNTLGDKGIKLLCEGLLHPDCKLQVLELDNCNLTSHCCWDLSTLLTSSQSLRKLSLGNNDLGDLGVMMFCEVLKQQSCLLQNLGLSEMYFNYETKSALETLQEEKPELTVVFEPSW

In the case of `CN1CCC[C@@H](Oc2nnc(-c3ccc(F)cc3O)c3ccoc23)C1` [Compound 91], the IC50 in test [1] is ≥ 10 µM; in test [2], 0.1 to 0.5 µM.

For `Cc1cc(C(F)(F)F)ccc1-c1nnc(N[C@@H]2CCCN(C)C2)c2c1ccn2C` [Compound 123], the IC50 in test [1] is 1 to 5 µM; in test [2] it was < 0.01 µM.

Turning to `CN1CCC[C@@H](Nc2nnc(-c3ccc(C#N)cc3O)c3c2cnn3C)C1` [Compound 104], the IC50 in test [1] was ≥ 10 µM; in test [2] it was 0.01 to 0.1 µM.

For the compound `CN1CCC[C@@H](N(C)c2nnc(-c3ccc(C(F)(F)F)cc3)c3ccn(C)c23)C1` [Compound 27, (R)—N,1-dimethyl-N-(1-methylpiperidin-3-yl)-4-(4-(trifluoromethyl)phenyl)-1H-pyrrolo[2,3-d]pyridazin-7-amine], the IC50 in test [1] is ≥ 10 µM; in test [2], 1 to 10 µM.

In the case of `CN1CCC[C@@H](Nc2nnc(-c3ccc(C#N)cc3O)c3cnsc23)C1` [Compound 144], the IC50 in test [1] is ≥ 10 µM; in test [2], < 0.01 µM.

Take `Cn1ccc2c(-c3ccc(C#N)cc3O)nnc(N[C@@H]3CCCN(CCO)C3)c21` [Compound 147]: the IC50 in test [1] is ≥ 10 µM; in test [2] it was < 0.01 µM.

With `CN1CCC[C@@H](Nc2nnc(-c3ccc(F)cc3O)c3cc[nH]c23)C1` [Compound 4], the IC50 is 5 to 10 µM in test [1] and < 0.01 µM in test [2].

Regarding `Cc1cc(C#N)cnc1-c1nnc(N[C@@H]2CCCN(C)C2)c2c1cnn2C` [Compound 139], the IC50 in test [1] and in test [2] was ≥ 10 µM throughout.

On to `CN1CCC[C@@H](Nc2nnc(-c3ccc(C#N)cc3O)c3ccn(C)c23)C1` [Compound 100], for which the IC50 in test [1] was in the range of 5 to 10 µM; in test [2], 0.01 to 0.1 µM.

With `CN1CCC[C@@H](N(C)c2nnc(-c3ccc(C(F)(F)F)cc3)c3c2cnn3C)C1` [Compound 106], the IC50 in test [1] and in test [2] was ≥ 10 µM each time.

With `Cc1c[nH]c2c(N[C@@H]3CCCN(C)C3)nnc(-c3ccc(F)cc3)c12` [Compound 73], the IC50 in test [1] was ≥ 10 µM; in test [2] it was 0.1 to 0.5 µM.

For the compound `CN1CCC[C@@H](Nc2nnc(-c3ccc(C(F)(F)F)cc3)c3nc[nH]c23)C1` [Compound 20], the IC50 was ≥ 10 µM in test [1] and 0.5 to 1 µM in test [2].

`Cc1c[nH]c2c(-c3ccc(F)cc3)nnc(N[C@@H]3CCCN(C)C3)c12` [Compound 74]: the IC50 in test [1] and in test [2] was ≥ 10 µM in each case.

In the case of `CN1CCC[C@@H](Oc2nnc(-c3ccc(C(F)(F)F)cc3)c3ccoc23)C1` [Compound 88], the IC50 was ≥ 10 µM in test [1] and 1 to 10 µM in test [2].

With `Cc1cc(-c2nnc(N[C@@H]3CCCN(C)C3)c3cc[nH]c23)ccc1C(F)(F)F` [Compound 66], the IC50 in test [1] and in test [2] was ≥ 10 µM each time.

In the case of `COCCN1CCC[C@@H](Nc2nnc(-c3ccc(C#N)cc3O)c3ccn(C)c23)C1` [Compound 153], the IC50 in test [1] was ≥ 10 µM; in test [2], 0.01 to 0.1 µM.

Regarding `CC(C)N1CCC[C@@H](Nc2nnc(-c3ccc(C(F)(F)F)cc3)c3ccn(C)c23)C1` [Compound 77], the half-inhibitory concentration (IC50) in test [1] was ≤ 1 µM; in test [2], 0.5 to 1 µM.

Regarding `Cn1ccc2c(-c3ccc(C#N)cc3O)nnc(N[C@@H]3CCCN(CCF)C3)c21` [Compound 148], the IC50 in test [1] was ≥ 10 µM; in test [2], 0.01 to 0.1 µM.
